# Assay results: patent publication US11426397B2, “Piperidinyl- and piperazinyl-substituted heteroaromatic carboxamides as modulators of GPR6” (TAKEDA PHARMACEUTICAL COMPANY LIMITED, priority 2017, dated 2022)
# Target: T1, GPR6 receptor expressed in CHO-K1 cells (Homo sapiens, UniProt P46095)
# T1 construct: expressed in transfected cells
# Experiment: In vitro inhibition of cAMP (EC50), cell-based HTRF cAMP assay
# Details: inhibition of constitutive cAMP activity of GPR6 in CHO-K1 cells
# Procedure: I. In Vitro Inhibition of cAMP (EC50)
# This cell based assay measures the ability of test compounds to inhibit the constitutive cAMP activity of GPR6 receptor expressed in CHO-K1 cells. CHO cells are stably expressed with GPR6 receptor, whose expression is controlled by a tetracycline inducible element. The cells were cultured in medium containing F12K, 10% FBS, 1% Penn/Strep, 200 μg/mL Hygromycin. GPR6 receptor expression is induced for 20 hours with 2 μg/mL doxycycline (Sigma D9891) in growth media. After addition of doxycycline, the cells are plated at a density of 450-750 cells per well in 96-well half-volume black tissue culture plates (Costar) and placed in an incubator (37° C., 5% CO2) for 20 hours prior to cAMP assays.
# Culture media is removed from the cells and they are washed with 50 μL/well of Ringer's Buffer (MgCl2 0.047 mg/mL, NaH2PO4 0.18 mg/mL, Na2HPO4 0.1 mg/mL, KCl 0.34 mg/mL, NaHCO3 1.26 mg/mL, D-glucose 1.8 mg/mL, NaCl 7 mg/mL; pH=7.4). The test compounds are suspended in DMSO, diluted in Ringer's Buffer containing 0.5% fatty acid free BSA plus 300 μM IBMX, and incubated on the cells for 45 minutes at 37° C. and 5% CO2. After incubation, the cells are conditioned for 10 minutes at room temp with Eu-cAMP tracer solution from a Perkin Elmer Lance HTRF Ultra cAMP assay kit (TRF0263). Then ULight™-anti-cAMP solution from the Lance HTRF kit is added and incubated on a shaker at room temp for 1 hour prior to HTRF detection in a Perkin Elmer Envision plate reader. EC50 curves are generated with a four-parameter logistic equation using GraphPad Prism 5.03.
# Table 1 lists biological assay data (in vitro inhibition of cAMP) for some of the compounds shown in the examples, where larger pEC50 values represent higher activity or potency. All of the compounds shown in Table 1 were tested in accordance with a cell-based assay which measures the ability of test compounds to inhibit the constitutive cAMP activity of GPR6 receptor expressed in CHO-K1 cells (reported as pEC50). The assay is described in the specification under the heading “In vitro inhibition of cAMP (EC50).”
# T1 sequence (P46095 whole entry): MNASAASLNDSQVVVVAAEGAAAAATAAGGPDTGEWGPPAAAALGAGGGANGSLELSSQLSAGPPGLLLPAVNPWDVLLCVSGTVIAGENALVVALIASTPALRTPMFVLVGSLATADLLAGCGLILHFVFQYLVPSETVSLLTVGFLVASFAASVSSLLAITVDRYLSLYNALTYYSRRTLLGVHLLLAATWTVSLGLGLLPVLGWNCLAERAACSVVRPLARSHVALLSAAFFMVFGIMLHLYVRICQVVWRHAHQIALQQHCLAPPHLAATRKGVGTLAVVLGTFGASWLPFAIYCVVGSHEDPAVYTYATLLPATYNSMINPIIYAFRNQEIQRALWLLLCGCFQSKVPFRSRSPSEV
row,"pEC50, in vitro inhibition of cAMP",SMILES
1,6.7,"COc1c(Cl)cccc1C(=O)Nc1cc(C#N)ccc1N1CCC(Oc2ccc(F)cc2F)CC1 [Example 222, 3-chloro-N-(5-cyano-2-(4-(2,4-difluorophenoxy)piperidin-1-yl)phenyl)-2-methoxybenzamide]"
2,6.2,"N#Cc1ccc(N2CCC(Oc3ccc(F)cc3F)CC2)c(NC(=O)c2cnccn2)c1 [Example 44, N-(5-cyano-2-(4-(2,4-difluorophenoxy)piperidin-1-yl)phenyl)pyrazine-2-carboxamide]"
3,7.0,"COc1ccc(OC2CCN(c3ccc(S(C)(=O)=O)cc3NC(=O)c3cn(CF)nc3OC)CC2)c(F)c1 [Example 2, N-(2-(4-(2-fluoro-4-methoxyphenoxy)piperidin-1-yl)-5-(methylsulfonyl)phenyl)-1-(fluoromethyl)-3-methoxy-1H-pyrazole-4-carboxamide]"
4,7.3,"COc1ncc(F)cc1C(=O)Nc1ccc(C#N)nc1N1CCC(Oc2ccc(F)cc2F)CC1 [Example 255, N-(6-cyano-2-(4-(2,4-difluorophenoxy)piperidin-1-yl)pyridin-3-yl)-5-fluoro-2-methoxynicotinamide]"
5,6.6,"CCOc1ncccc1C(=O)Nc1cc(C#N)ccc1N1CCC(Oc2ccc(F)cc2F)CC1 [Example 28, N-(5-cyano-2-(4-(2,4-difluorophenoxy)piperidin-1-yl)phenyl)-2-ethoxynicotinamide]"
6,6.6,"N#Cc1ccc(N2CCC(Oc3ccc(F)cc3F)CC2)c(NC(=O)c2ccsn2)c1 [Example 128, N-(5-cyano-2-(4-(2,4-difluorophenoxy)piperidin-1-yl)phenyl)isothiazole-3-carboxamide]"
7,6.8,COc1ncccc1C(=O)Nc1cnccc1N1CCC(Oc2ccc(F)cc2F)CC1 [Example 264]
8,7.3,"Cc1ccc(F)c(C(=O)Nc2cc(C#N)cnc2N2CCC(Oc3ccc(F)cc3F)CC2)n1 [Example 57, N-(5-cyano-2-(4-(2,4-difluorophenoxy)piperidin-1-yl)pyridin-3-yl)-3-fluoro-6-methylpicolinamide]"
9,6.9,"N#Cc1ccc(N2CCC(Oc3ccc(F)cc3F)CC2)c(NC(=O)c2cnc3sccn3c2=O)c1 [Example 200, N-(5-cyano-2-(4-(2,4-difluorophenoxy)piperidin-1-yl)phenyl)-5-oxo-5H-thiazolo[3,2-a]pyrimidine-6-carboxamide]"
10,<4.5,"COc1c(Cl)cc(Cl)cc1C(=O)Nc1cc(C#N)ccc1N1CCC(Oc2ccc(F)cc2F)CC1 [Example 234, 3,5-dichloro-N-(5-cyano-2-(4-(2,4-difluorophenoxy)piperidin-1-yl)phenyl)-2-methoxybenzamide]"
11,6.3,"COc1cc(C(F)(F)F)ccc1C(=O)Nc1cc(C#N)ccc1N1CCC(Oc2ccc(F)cc2F)CC1 [Example 194, N-(5-cyano-2-(4-(2,4-difluorophenoxy)piperidin-1-yl)phenyl)-2-methoxy-4-(trifluoromethyl)benzamide]"
12,7.1,COc1ncccc1C(=O)Nc1cc(C#N)c(C#N)cc1N1CCC(Oc2ccc(F)cc2F)CC1 [Example 271]
13,6.4,"COc1c(C(=O)Nc2cc(C#N)ccc2N2CCC(Oc3ccc(F)cc3F)CC2)ccc(F)c1F [Example 233, N-(5-cyano-2-(4-(2,4-difluorophenoxy)piperidin-1-yl)phenyl)-3,4-difluoro-2-methoxybenzamide]"
14,6.9,"COc1ccc(C(F)(F)F)cc1C(=O)Nc1cc(C#N)ccc1N1CCC(Oc2ccc(F)cc2F)CC1 [Example 208, N-(5-cyano-2-(4-(2,4-difluorophenoxy)piperidin-1-yl)phenyl)-2-methoxy-5-(trifluoromethyl)benzamide]"
15,6.2,"N#Cc1ccc(N2CCC(Oc3ccc(F)cc3F)CC2)c(NC(=O)c2ccc(O)nn2)c1 [Example 52, N-(5-cyano-2-(4-(2,4-difluorophenoxy)piperidin-1-yl)phenyl)-6-hydroxypyridazine-3-carboxamide]"
16,4.9,"O=C(Nc1ccccc1N1CCN(C(=O)c2ccc(Cl)cc2)CC1)c1ncccn1 [Example 258, N-(2-(4-(4-chlorobenzoyl)piperazin-1-yl)phenyl)pyrimidine-2-carboxamide]"
17,7.1,"COc1nn(C)cc1C(=O)Nc1cc(C#N)cnc1N1CCN(Cc2c(F)cc(Cl)cc2F)CC1 [Example 174, N-(2-(4-(4-chloro-2,6-difluorobenzyl)piperazin-1-yl)-5-cyanopyridin-3-yl)-3-methoxy-1-methyl-1H-pyrazole-4-carboxamide]"

row,"pEC50, in vitro inhibition of cAMP",SMILES
1,6.1,"Cc1nc(C(=O)Nc2cc(C#N)ccc2N2CCC(Oc3ccc(F)cc3F)CC2)co1 [Example 43, N-(5-cyano-2-(4-(2,4-difluorophenoxy)piperidin-1-yl)phenyl)-2-methyloxazole-4-carboxamide]"
2,6.3,"Cc1nc(C(=O)Nc2cc(C#N)ccc2N2CCC(Oc3ccc(F)cc3F)CC2)c(C)o1 [Example 110, N-(5-cyano-2-(4-(2,4-difluorophenoxy)piperidin-1-yl)phenyl)-2,5-dimethyloxazole-4-carboxamide]"
3,5.9,COc1c(C)cc(Cl)cc1C(=O)Nc1cc(C#N)ccc1N1CCC(Oc2ccc(F)cc2F)CC1 [Example 195]
4,6.5,"N#Cc1ccc(N2CCC(Oc3ccc(F)cc3F)CC2)c(NC(=O)c2ccc(F)cn2)c1 [Example 106, N-(5-cyano-2-(4-(2,4-difluorophenoxy)piperidin-1-yl)phenyl)-5-fluoropicolinamide]"
5,7.0,Cc1nc(C(=O)Nc2cc(C#N)ccc2N2CCC(Oc3ccc(F)cc3F)CC2)cs1 [Example 105]
6,7.0,"COc1nn(C)cc1C(=O)Nc1cc(C)cnc1N1CCC(Oc2ccc(F)cc2F)CC1 [Example 36, N-(2-(4-(2,4-difluorophenoxy)piperidin-1-yl)-5-methylpyridin-3-yl)-3-methoxy-1-methyl-1H-pyrazole-4-carboxamide]"
7,6.6,"COc1ccc(C(=O)N2CCN(c3ccc(C#N)cc3NC(=O)c3cccnc3OC)CC2)c(F)c1 [Example 284, N-(5-cyano-2-(4-(2-fluoro-4-methoxybenzoyl)piperazin-1-yl)phenyl)-2-methoxynicotinamide]"
8,6.3,"COc1cc(F)ccc1CN1CCN(c2ncc(C#N)cc2NC(=O)c2cn(C)nc2OC)CC1 [Example 155, N-(5-cyano-2-(4-(4-fluoro-2-methoxybenzyl)piperazin-1-yl)pyridin-3-yl)-3-methoxy-1-methyl-1H-pyrazole-4-carboxamide]"
9,6.7,"COc1ccc(C)cc1C(=O)Nc1cc(C#N)ccc1N1CCC(Oc2ccc(F)cc2F)CC1 [Example 237, N-(5-cyano-2-(4-(2,4-difluorophenoxy)piperidin-1-yl)phenyl)-2-methoxy-5-methylbenzamide]"
10,6.4,"Cn1cccc(C(=O)Nc2cc(C#N)ccc2N2CCC(C(F)(F)c3cc(F)ccc3F)CC2)c1=O [Example 88, N-(5-cyano-2-(4-((2,5-difluorophenyl)difluoromethyl)piperidin-1-yl)phenyl)-1-methyl-2-oxo-1,2-dihydropyridine-3-carboxamide]"
11,6.5,"COc1nn(C)cc1C(=O)Nc1cc(C#N)cnc1N1CCN(Cc2cccc(F)c2OC)CC1 [Example 160, N-(5-cyano-2-(4-(3-fluoro-2-methoxybenzyl)piperazin-1-yl)pyridin-3-yl)-3-methoxy-1-methyl-1H-pyrazole-4-carboxamide]"
12,7.4,"COc1ccncc1C(=O)Nc1cc(C)cnc1N1CCC(Oc2ccc(F)cc2F)CC1 [Example 35, N-(2-(4-(2,4-difluorophenoxy)piperidin-1-yl)-5-methylpyridin-3-yl)-4-methoxynicotinamide]"
13,6.4,COc1ncccc1C(=O)Nc1cc(C#N)ccc1N1CCN(Cc2c(F)cccc2F)CC1 [Example 249]
14,<5.7,"O=C(Nc1ccc2nccnc2c1N1CCC(Oc2ccc(F)cc2F)CC1)c1ccccn1 [Example 150, N-(5-(4-(2,4-difluorophenoxy)piperidin-1-yl)quinoxalin-6-yl)picolinamide]"
15,7.1,"Cn1cccc(C(=O)Nc2cc(C#N)ccc2N2CCC(Oc3cc(F)ccc3F)CC2)c1=O [Example 15, N-(5-cyano-2-(4-(2,5-difluorophenoxy)piperidin-1-yl)phenyl)-1-methyl-2-oxo-1,2-dihydropyridine-3-carboxamide]"
16,6.9,Cn1cccc(C(=O)Nc2cc(C#N)ccc2N2CCC(C(=O)c3cc(Cl)ccc3F)CC2)c1=O [Example 83]
